Reference: patent US5559127A, “Fibrinogen receptor antagonists” (Merck & Co., Inc., priority 1995, dated 1996)

These molecules were tested on human platelets (assay: ADP-stimulated platelet aggregation assay (inhibition of aggregation of gel-filtered human platelets)). Conditions: fibrinogen 100 μg/ml, Ca2+ 1 mM, 10 uM ADP, 37° C., read-out: IC50 (dose inhibiting aggregation by 50% relative to a control lacking the compound).
Format: cell-based
Experimental: The ADP-stimulated platelet aggregation assay was used to determine IC50 inhibition associated with compounds of the invention.
Human platelets were isolated from fresh blood, collected into acid citrate/dextrose by differential centrifugation followed by gel filtration on Sepharose 2B in divalent ion-free Tyrode's buffer (pH 7.4) containing 2% bovine serum albumin. Platelet aggregation was measured at 37° C. in a a Chronolog aggregometer. The reaction mixture contained gel-filtered human platelets (2×10^8 […]), fibrinogen (100 μg/ml), Ca^2+ (1 mM), and the compound to be tested. Aggregation was initiated by adding 10 uM ADP 1 minute after the other components had been added. The reaction was allowed to proceed for at least 2 minutes. The extent of inhibition of aggregation was expressed as the percentage of the rate of aggregation observed in the absence of inhibitor. The IC50 is the dose of a particular compound inhibiting aggregation by 50% relative to a control lacking the compound.

With `CCCCS(=O)(=O)N[C@@H](Cc1ccc2oc(C(=O)NCC3CCNCC3)cc2c1)C(=O)O` [2(S)-(Butylsulfonylamino)-3-{5-[2'-(4-piperidinylmethyl)aminocarbonyl]benzofuranyl}propionic acid] as the molecule, how does the IC50 read?
Its IC50 is 6600 nM.

How did the IC50 turn out when `O=C(NC[C@H](NS(=O)(=O)c1ccccc1)C(=O)O)c1cc2cc(OCCC3CCNCC3)ccc2[nH]1` [5-[2-(4-Piperidinylethyl)oxy]-2-indolecarbonyl-2(S)-phenylsulfonyl0amino-β-alanine] was run?
The IC50 was 12 nM.

With `CCCCS(=O)(=O)N[C@@H](CNC(=O)c1ccc2[nH]c(CCC3CCNCC3)nc2c1)C(=O)O` [2-[2-(4-Piperidinyl)ethyl]benzimidazole-5-carbonyl-[2(S)-butylsulfonylamino]-β-alanine] as the molecule, how does the IC50 read?
Its IC50 is 22 nM.

How did the IC50 turn out when `CCCCS(=O)(=O)N[C@@H](CNC(=O)c1ccc2cc(CCC3CCNCC3)sc2c1)C(=O)O` [2-[2-(Piperidin-4-yl)ethyl]benzothiophene-6-N-[3-(2(S)-butylsulfonylaminopropionic acid)]carboxamide] was run?
The IC50 was 36 nM.

How did the IC50 turn out when `O=C(N[C@@H](CNC(=O)c1ccc2cc(CCC3CCNCC3)sc2c1)C(=O)O)OCc1ccccc1` [2-[2-(Piperidin-4-yl)ethyl]benzothiophene-6-N-[3-(2(S)-N-carbobenzyloxyaminopropionic acid)]carboxamide] was run?
The IC50 was 67 nM.

Which IC50 does the source give for `CCCCS(=O)(=O)N[C@@H](Cc1ccc2oc(CCCC3CCNCC3)cc2c1)C(=O)O` [2(S)-(Butylsulfonylamino)-3-{5-[2'-3-(piperidin-4-ylpropyl)benzofuranyl]}propionic acid] here?
Its IC50 is 200 nM.
